According to patent US9745291B2, “PRMT5 inhibitors containing a dihydro- or tetrahydroisoquinoline and uses thereof” (Epizyme, Inc., priority 2012, dated 2017):
Where two headings read alike, the source gives them in different places.

Assays:
[1] = system: symmetric di-methyl arginine in Z-138 cells; assay: Z-138 Methylation Assay (In Cell Western for symmetric di-methyl arginine and DNA content); assay type: cell-based; details: read-out: ICW EC50
From the text: [formula] Where top and bottom are the normally allowed to float, but may be fixed at 100 or 0 respectively in a 3-parameter fit. The Hill Coefficient normally allowed to float but may also be fixed at 1 in a 3-parameter fit. Y is the % inhibition and X is the compound concentration. Z-138 Methylation Assay
Z-138 suspension cells were purchased from ATCC (American Type Culture Collection, Manassas, Va.). RPMI/Glutamax medium, penicillin-streptomycin, heat inactivated fetal bovine serum, and D-PBS were purchased from Life Technologies, Grand Island, N.Y., USA. Odyssey blocking buffer, 800CW goat anti-rabbit IgG (H+L) antibody, and Licor Odyssey infrared scanner were purchased from Licor Biosciences, Lincoln, Nebr., USA. Symmetric di-methyl arginine antibody was purchased from EMD Millipore, Billerica, Mass., USA. 16% Paraformaldehyde was purchased from Electron Microscopy Sciences, Hatfield, Pa., USA.
Z-138 suspension cells were maintained in growth medium (RPMI 1640 supplemented with 10% v/v heat inactivated fetal bovine serum and 100 units/mL penicillin-streptomycin) and cultured at 37° C. under 5% CO2.
Cell Treatment, in Cell Western (ICW) for Detection of Symmetric Di-Methyl Arginine and DNA Content.
Z-138 cells were seeded in assay medium at a concentration of 50,000 cells per mL to a 384-well cell culture plate with 50 μL per well. Compound (100 nL) from 384 well source plates was added directly to 384 well cell plate. Plates were incubated at 37° C., 5% CO2 for 96 hours. After four days of incubation, 40 μL of cells from incubated plates were added to poly-D-lysine coated 384 well culture plates (BD Biosciences 356697). Plates were incubated at room temperature for 30 minutes then incubated at 37° C., 5% CO2 for 5 hours. After the incubation, 40 μL per well of 8% paraformaldehyde in PBS (16% paraformaldahyde was diluted to 8% in PBS) was added to each plate and incubated for 30 minutes. Plates were transferred to a Biotek 405 plate washer and washed 5 times with 100 μL per well of wash buffer (1×PBS with 0.1% Triton X-100 (v/v)). Next 30 μL per well of Odyssey blocking buffer were added to each plate and incubated 1 hour at room temperature. Blocking buffer was removed and 20 μL per well of primary antibody was added (symmetric di-methyl arginine diluted 1:100 in Odyssey buffer with 0.1% Tween 20 (v/v)) and plates were incubated overnight (16 hours) at 4° C. Plates were washed 5 times with 100 μL per well of wash buffer. Next 20 μL per well of secondary antibody was added (1:200 800CW goat anti-rabbit IgG (H+L) antibody, 1:1000 DRAQ5 (Biostatus limited) in Odyssey buffer with 0.1% Tween 20 (v/v)) and incubated for 1 hour at room temperature. The plates were washed 5 times with 100 μL per well wash buffer then 1 time with 100 μL per well of water. Plates were allowed to dry at room temperature then imaged on the Licor Odyssey machine which measures integrated intensity at 700 nm and 800 nm wavelengths. Both 700 and 800 channels were scanned.
First, the ratio for each well was determined by:
Each plate included fourteen control wells of DMSO only treatment (minimum inhibition) as well as fourteen control wells for maximum inhibition treated with 3 μM of a reference compound (Background wells). The average of the ratio values for each control type was calculated and used to determine the percent inhibition for each test well in the plate. Reference compound was serially diluted three-fold in DMSO for a total of nine test concentrations, beginning at 3 μM. Percent inhibition was determined and IC50 curves were generated using triplicate wells per concentration of compound. […]

[2] = system: Z-138 cell line; assay: Z-138 Proliferation Assay (Cell Titer Glo, 5 days); assay type: cell-based; details: Z-138 cells
From the text: [formula] Z-138 Proliferation Assay
Z-138 suspension cells were purchased from ATCC (American Type Culture Collection, Manassas, Va.). RPMI/Glutamax medium, penicillin-streptomycin, heat inactivated fetal bovine serum were purchased from Life Technologies, Grand Island, N.Y., USA. V-bottom polypropylene 384-well plates were purchased from Greiner Bio-One, Monroe, N.C., USA. Cell culture 384-well white opaque plates were purchased from Perkin Elmer, Waltham, Mass., USA. Cell-Titer Glo® was purchased from Promega Corporation, Madison, Wis., USA. SpectraMax M5 plate reader was purchased from Molecular Devices LLC, Sunnyvale, Calif., USA.
Z-138 suspension cells were maintained in growth medium (RPMI 1640 supplemented with 10% v/v heat inactivated fetal bovine serum and cultured at 37° C. under 5% CO2 Under assay conditions, cells were incubated in assay medium (RPMI 1640 supplemented with 10% v/v heat inactivated fetal bovine serum and 100 units/mL penicillin-streptomycin) at 37° C. under 5% CO2.
For the assessment of the effect of compounds on the proliferation of the Z-138 cell line, exponentially growing cells were plated in 384-well white opaque plates at a density of 10,000 cells/ml in a final volume of 50 μl of assay medium. A compound source plate was prepared by performing triplicate nine-point 3-fold serial dilutions in DMSO, beginning at 10 mM (final top concentration of compound in the assay was 20 μM and the DMSO was 0.2%). A 100 nL aliquot from the compound stock plate was added to its respective well in the cell plate. […] After addition of compounds, assay plates were incubated for 5 days at 37° C., 5% CO2, relative humidity >90%.
Cell viability was measured by quantitation of ATP present in the cell cultures, adding 35 μl of Cell Titer Glo® reagent to the cell plates. Luminescence was read in the SpectraMax M5 microplate reader. The concentration of compound inhibiting cell viability by 50% was determined using a 4-parametric fit of the normalized dose response curves.

[3] = biological target: PRMT5/MEP50 (Homo sapiens (Human), UniProt O14744); assay: PRMT5 Biochemical Assay (PRMT5/MEP50 enzyme assay on peptide substrate, 3H-SAM Flashplate); details: PRMT5 biochemical assay; read-out: Biochemical IC50
Sequence of PRMT5/MEP50 (O14744 other isoform, or with tags, fused parts or gaps): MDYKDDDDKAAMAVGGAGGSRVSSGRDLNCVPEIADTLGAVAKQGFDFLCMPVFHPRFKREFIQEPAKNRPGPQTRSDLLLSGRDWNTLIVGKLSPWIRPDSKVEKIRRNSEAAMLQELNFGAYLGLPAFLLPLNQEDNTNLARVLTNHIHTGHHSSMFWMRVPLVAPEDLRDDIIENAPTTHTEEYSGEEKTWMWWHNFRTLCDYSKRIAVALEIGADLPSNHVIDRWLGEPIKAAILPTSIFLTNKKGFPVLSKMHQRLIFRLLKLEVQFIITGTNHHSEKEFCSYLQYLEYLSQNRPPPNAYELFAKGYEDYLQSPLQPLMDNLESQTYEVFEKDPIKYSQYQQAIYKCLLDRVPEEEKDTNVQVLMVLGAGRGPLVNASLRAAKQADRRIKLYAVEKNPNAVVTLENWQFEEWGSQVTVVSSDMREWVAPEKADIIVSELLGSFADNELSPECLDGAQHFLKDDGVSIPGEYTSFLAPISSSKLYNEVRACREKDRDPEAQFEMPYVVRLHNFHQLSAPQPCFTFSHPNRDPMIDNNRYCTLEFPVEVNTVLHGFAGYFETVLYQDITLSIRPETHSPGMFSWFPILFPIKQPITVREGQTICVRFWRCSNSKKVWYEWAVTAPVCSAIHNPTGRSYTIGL
Sequence of PRMT5/MEP50 (Q9BQA1 other isoform, or with tags, fused parts or gaps partner): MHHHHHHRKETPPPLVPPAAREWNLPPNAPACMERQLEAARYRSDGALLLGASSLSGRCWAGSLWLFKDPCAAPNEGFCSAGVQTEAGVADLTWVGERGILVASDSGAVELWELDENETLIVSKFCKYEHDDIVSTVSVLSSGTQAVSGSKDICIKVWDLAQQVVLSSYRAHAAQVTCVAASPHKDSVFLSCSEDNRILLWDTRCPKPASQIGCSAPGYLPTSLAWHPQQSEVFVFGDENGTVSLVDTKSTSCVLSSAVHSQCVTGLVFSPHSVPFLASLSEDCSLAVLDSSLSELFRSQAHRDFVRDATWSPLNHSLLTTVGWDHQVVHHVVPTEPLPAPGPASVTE

[4] = Homo sapiens, Z-138, Z-138 cells

`O=C(CCn1cnc2ccccc21)NC[C@@H](O)CN1CCc2ccccc2C1` [Compound 206] was tested, and the EC50 [1, 4] was greater than 1000 nM, the EC50 ([2]; Homo sapiens, Z-138, 120 h) was greater than 20 µM and the IC50 [3] was 1000 to 10000 nM.
In the case of `Cc1ccc2[nH]c(CCC(=O)NC[C@@H](O)CN3CCc4ccccc4C3)nc2c1` [Compound 207], the EC50 [1, 4] is reported as 101 to 1000 nM, the EC50 ([2]; Homo sapiens, Z-138, 120 h) is reported as 10 to 50 µM and the IC50 [3] is reported as 101 to 1000 nM.
With `O=C(CCc1nc2cc(Cl)ccc2[nH]1)NC[C@@H](O)CN1CCc2ccccc2C1` [Compound 208] the EC50 [1, 4] was 101 to 1000 nM, the EC50 ([2]; Homo sapiens, Z-138, 120 h) was 10 to 50 µM and the IC50 [3] was 101 to 1000 nM.
For `CN(C[C@@H](O)CN1CCc2ccccc2C1)C(=O)CCc1nc2ccccc2[nH]1` [Compound 209], the EC50 [1, 4] was 101 to 1000 nM, the EC50 ([2]; Homo sapiens, Z-138, 120 h) was 10 to 50 µM and the IC50 [3] was 101 to 1000 nM.
With `CC1CN(S(=O)(=O)c2ccccc2OCC(=O)NC[C@@H](O)CN2CCc3ccccc3C2)CCN1` (stereo partly drawn) [Compound 210] the EC50 [1, 4] was 101 to 1000 nM, the EC50 ([2]; Homo sapiens, Z-138, 120 h) was 10 to 50 µM and the IC50 [3] was 101 to 1000 nM.
`CC1CN(S(=O)(=O)c2ccccc2OCC(=O)NC[C@@H](O)CN2CCc3ccccc3C2)CCN1C` (stereo partly drawn) [Compound 211] showed an EC50 [1, 4] greater than 1000 nM, an EC50 ([2]; Homo sapiens, Z-138, 120 h) greater than 20 µM and an IC50 [3] of 1000 to 10000 nM.
`O=C(CCc1nc2cc(F)ccc2[nH]1)NC[C@@H](O)CN1CCc2ccccc2C1` [Compound 213] gave an EC50 [1, 4] of 101 to 1000 nM, an EC50 ([2]; Homo sapiens, Z-138, 120 h) greater than 20 µM and an IC50 [3] of 101 to 1000 nM.
Work on `CN(CCN1CCCCC1)S(=O)(=O)c1ccccc1OCC(=O)NC[C@@H](O)CN1CCc2ccccc2C1` [Compound 214] yielded an EC50 [1, 4] of less than 100 nM, an EC50 ([2]; Homo sapiens, Z-138, 120 h) of 0.101 to 1 µM and an IC50 [3] of less than 100 nM.
`NC1CN(S(=O)(=O)c2ccccc2OCC(=O)NC[C@@H](O)CN2CCc3ccccc3C2)CC1O` (stereo partly drawn) [Compound 215] was tested, and the EC50 [1, 4] was greater than 1000 nM, the EC50 ([2]; Homo sapiens, Z-138, 120 h) was greater than 20 µM and the IC50 [3] was less than 100 nM.
In the case of `CN(C)C1CN(S(=O)(=O)c2ccccc2OCC(=O)NC[C@@H](O)CN2CCc3ccccc3C2)CC1O` (stereo partly drawn) [Compound 216], the EC50 [1, 4] is reported as 101 to 1000 nM, the EC50 ([2]; Homo sapiens, Z-138, 120 h) is reported as greater than 20 µM and the IC50 [3] is reported as 101 to 1000 nM.
`O=C(COc1ccccc1S(=O)(=O)N1CCNC(CO)C1)NC[C@@H](O)CN1CCc2ccccc2C1` (stereo partly drawn) [Compound 217] showed an EC50 [1, 4] of 101 to 1000 nM, an EC50 ([2]; Homo sapiens, Z-138, 120 h) greater than 20 µM and an IC50 [3] of 101 to 1000 nM.
Work on `Cn1cnc(CCNC(=O)c2cccc(OCC(=O)NC[C@@H](O)CN3CCc4ccccc4C3)c2)c1` [Compound 218] yielded an EC50 [1, 4] greater than 1000 nM, an EC50 ([2]; Homo sapiens, Z-138, 120 h) greater than 20 µM and an IC50 [3] of 101 to 1000 nM.
Work on `CN(CC1CCNC1)S(=O)(=O)c1ccccc1OCC(=O)NC[C@@H](O)CN1CCc2ccccc2C1` (stereo partly drawn) [Compound 219] yielded an EC50 [1, 4] of less than 100 nM, an EC50 [2] of 0.101 to 1 µM and an IC50 [3] of less than 100 nM.
`CN(CC1CCNC1)S(=O)(=O)c1ccccc1OCC(=O)NC[C@@H](O)CN1CCc2ccccc2C1` (stereo partly drawn) [Compound 220] showed an EC50 ([1]; Z-138 cells) of 101 to 1000 nM, an EC50 [2] of 10 to 50 µM and an IC50 [3] of less than 100 nM.
`NC1CCN(S(=O)(=O)c2ccccc2OCC(=O)NC[C@@H](O)CN2CCc3ccccc3C2)C1` (stereo partly drawn) [Compound 221] gave an EC50 [1, 4] of 101 to 1000 nM, an EC50 ([2]; Homo sapiens, Z-138, 120 h) of 10 to 50 µM and an IC50 [3] of less than 100 nM.
`Cn1c(CCC(=O)NC[C@H](O)CN2CCc3ccccc3C2)nc2ccccc21` [Compound 222] was tested, and the EC50 [1, 4] was 101 to 1000 nM, the EC50 ([2]; Homo sapiens, Z-138, 120 h) was 1 to 10 µM and the IC50 [3] was 101 to 1000 nM.
`O=C(COc1nc2ccccc2[nH]1)NC[C@H](O)CN1CCc2ccccc2C1` [Compound 223] was tested, and the EC50 [1, 4] was 101 to 1000 nM, the EC50 ([2]; Homo sapiens, Z-138, 120 h) was 1 to 10 µM and the IC50 [3] was 101 to 1000 nM.
